Holding throughout (format): physicochemical
Data set [1] is described as follows: Dynamic Vapor Sorption (DVS). Particulars: 25° C. The method, then:
Two different types of DVS equipment were used, where the sample weight uptake is plotted against the relative humidity over the sample: • SMS DVS controlled by the software DVS Win. The sample temperature is maintained at 25° C. The weight change of the sample as a function of % RH (relative humidity expressed as a percentage) was monitored by the microbalance. The sample was placed on a glass pan attached to the microbalance. A moisture cycle was performed from 30 to 90 to 0 to 30% RH at 25° C. (dm/dt 0.002 with a scanning step 10%). • Projekt Messtechnik Sorptions Prüfsystem SPS 11-100n or Surface Measurement Systems DVS-1; the sample was placed on an aluminium (SPS 11) or platinum (DVS-1) holder on top of the microbalance and conditioned at 25% RH and 25° C. A moisture cycle was performed from 25 to 95 to 0 to 25% RH at 5% RH per hour at 25° C.

The nature of data set [2]: Kinetic stability: solid, powdery samples exposed to air at selected temperature and relative humidity. Particulars: 7 weeks, solid powder exposed to air. From the text: (§1) The thermodynamic stability was checked by suspending crystals of Form B for 30 days in appropriate solvent/water mixtures, thus creating environments with the desired water activity. As water activity is equivalent to relative humidity (e.g. 60% RH=water activity 0.6), and due to the more rapid exchange of molecules between the crystals and the saturated solution in the suspension, this approach gives the possibility to observe the equilibrium condition of the solid form. […] Kinetic stability was checked by exposing solid, powdery samples to air at selected temperature and relative humidity.
(§2) The thermodynamic stability was checked by suspending crystals of Form F for 30 days in appropriate solvent/water mixtures, as explained above for Form B crystals.

Data set [3] in a line: Thermodynamic stability: crystals suspended for 30 days in solvent/water mixtures of desired water activity.
Description: as §1, §2

In data set [1] (from 25% RH to 95% RH), `[O-][n+]1cccc(-c2nc3c(Cl)cccc3cc2[C@@H](Nc2ncnc3cccnc23)C(F)(F)F)c1` [Form B, N-{(R)-1-[8-Chloro-2-(1-oxypyridin-3-yl)quinolin-3-yl]-2,2,2-trifluoroethyl}pyrido[3,2-d]pyrimidin-4-ylamine, Crystal Form B (Hydrate)] returned a continuous water uptake of about 2.4 % weight. The stepwise mass loss in data set [1] (second part of the cycle (95% RH to 0% RH), at low RH) came out at 3.3 % weight. The stepwise water uptake in data set [1] (third part of the cycle (0% RH to 25% RH)) was found to be 3.6%. Also, the kinetic stability result in data set [2] (25° C./60% RH) and in data set [2] (40° C./75% RH) was “kinetically stable” each time. For the same compound, the “thermodynamic stability under ICH conditions” value in data set [3] (25° C./60% RH, (Hydrate)) is “thermodynamically stable”; in data set [3] (40° C./75% RH, (Hydrate)), “thermodynamically stable”.
`[O-][n+]1cccc(-c2nc3c(Cl)cccc3cc2[C@@H](Nc2ncnc3cccnc23)C(F)(F)F)c1` [Form F, N-{(R)-1-[8-Chloro-2-(1-oxypyridin-3-yl)quinolin-3-yl]-2,2,2-trifluoroethyl}pyrido[3,2-d]pyrimidin-4-ylamine, Crystal Form F] had a limited water uptake in data set [1] (observed from 70% RH onwards) of 1%. The “hygroscopic behaviour (DVS)” value in data set [1] (variable relative humidity) is “non-hygroscopic”. The “thermodynamic stability under ICH conditions” value in data set [3] (25° C./60% RH) and in data set [3] (40° C./75% RH) was “not to be thermodynamically stable” throughout.

(Values after patent US11059820B2, “Crystalline forms of seletalisib” (UCB BIOPHARMA SPRL, priority 2017, dated 2021).)
